Assay results: patent publication US20240217983A1, “GPR119 AGONISTS” (Kallyope, Inc., priority 2021, published 2024)
pEC50: −log10 of the molar value.

Target: T1, human GPR119 (hGPR119) (Homo sapiens, UniProt Q8TDV5)
T1 construct: expressed in transfected cells
T1 sequence (Q8TDV5 1-335): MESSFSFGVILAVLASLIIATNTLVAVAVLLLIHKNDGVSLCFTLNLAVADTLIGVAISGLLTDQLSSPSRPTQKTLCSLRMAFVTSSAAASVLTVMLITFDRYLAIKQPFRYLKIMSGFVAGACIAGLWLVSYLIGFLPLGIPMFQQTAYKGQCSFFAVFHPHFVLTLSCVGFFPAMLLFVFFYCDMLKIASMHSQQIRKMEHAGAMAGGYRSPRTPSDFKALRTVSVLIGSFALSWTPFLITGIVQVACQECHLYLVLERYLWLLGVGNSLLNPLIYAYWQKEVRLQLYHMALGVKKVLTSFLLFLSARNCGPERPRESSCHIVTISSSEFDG
Test: cAMP accumulation assay (Cisbio cAMP Gs dynamic HTRF kit) in CHO-K1 cells stably expressing human GPR119
Format: cell-based
Conditions: 4-parameter fit; for Emax: 1 h, % activity normalized to Max and Min controls; for pEC50: 60 minutes at 37° C.
Method in brief: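 CHO-K1 cells stably expressing hGPR119, used as assay-ready frozen stocks at ~10,000 cells/well, exposed to compound dose-response in stimulation buffer with Tween 80 for 60 min at 37° C. cAMP read by HTRF (665/620 nm ratio), normalised to Max/Min controls; EC50 and Max activity from 4-parameter fit.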

Compound | Emax [%] | pEC50
CC1(CCCCOc2ccc(CC(=O)N3CCN(C[C@H](O)[C@@H](O)[C@H](O)[C@H](O)CO)CC3)c(F)c2)CCN(c2ncc(Cl)cn2)CC1 [Example 107, 2-(4-(4-(1-(5-chloropyrimidin-2-yl)-4-methylpiperidin-4-yl)butoxy)-2-fluorophenyl)-1-(4-((2S,3R,4R,5R)-2,3,4,5,6-pentahydroxyhexyl)piperazin-1-yl)ethan-1-one] | 100 to 130 | 6.00 to 7.00
O=C(Cc1ccc(OCCCC2CCN(c3ncc(Cl)cn3)CC2)nc1)N1CCN(C[C@H](O)[C@@H](O)[C@H](O)[C@H](O)CO)CC1 [Example 90, 2-(6-(3-(1-(5-chloropyrimidin-2-yl)piperidin-4-yl)propoxy)pyridin-3-yl)-1-(4-((2S,3R,4R,5R)-2,3,4,5,6-pentahydroxyhexyl)piperazin-1-yl)ethan-1-one] | 100 to 130 | 6.00 to 7.00
CCOc1cnc(N2CCC(CCCOc3ccc(CC(=O)N4CCN(C[C@H](O)[C@@H](O)[C@H](O)[C@H](O)CO)CC4)c(F)c3)CC2)nc1 [Example 96, 2-(4-(3-(1-(5-ethoxypyrimidin-2-yl)piperidin-4-yl)propoxy)-2-fluorophenyl)-1-(4-((2S,3R,4R,5R)-2,3,4,5,6-pentahydroxyhexyl)piperazin-1-yl)ethan-1-one] | 100 to 130 | 6.00 to 7.00
O=C(Cc1ccc(OCCCCC2CCN(c3ncc(Cl)cn3)CC2)cc1F)N1CCN(C[C@H](O)[C@@H](O)[C@H](O)[C@H](O)CO)CC1 [Example 86, 2-(4-(4-(1-(5-chloropyrimidin-2-yl)piperidin-4-yl)butoxy)-2-fluorophenyl)-1-(4-((2S,3R,4R,5R)-2,3,4,5,6-pentahydroxyhexyl)piperazin-1-yl)ethan-1-one] | 100 to 130 | ≥ 7.00
O=C(Cc1ccc(OCCCC2CCN(c3ncc(Cl)cn3)CC2)cc1F)N1C2CC1CN(C[C@H](O)[C@@H](O)[C@H](O)[C@H](O)CO)C2 [Example 57, 2-(4-(3-(1-(5-chloropyrimidin-2-yl)piperidin-4-yl)propoxy)-2-fluorophenyl)-1-(3-((2S,3R,4R,5R)-2,3,4,5,6-pentahydroxyhexyl)-3,6-diazabicyclo[3.1.1]heptan-6-yl)ethan-1-one] | 100 to 130 | ≥ 7.00
O=C(Cc1ccc(OCCCC2CCN(c3ncc(Cl)cn3)CC2)cc1F)N1C[C@@H]2CCN(C[C@H](O)[C@@H](O)[C@H](O)[C@H](O)CO)[C@@H]2C1 [Example 35, 2-(4-(3-(1-(5-chloropyrimidin-2-yl)piperidin-4-yl)propoxy)-2-fluorophenyl)-1-((3aS,6aS)-1-((2S,3R,4R,5R)-2,3,4,5,6-pentahydroxyhexyl)hexahydropyrrolo[3,4-b]pyrrol-5(1H)-yl)ethan-1-one] | 100 to 130 | ≥ 7.00
CCCc1cnc(N2CCC(CCCOc3cc(F)c(CC(=O)N4CCN(C[C@H](O)[C@@H](O)[C@H](O)[C@H](O)CO)CC4)c(F)c3)CC2)nc1 [Example 95, 2-(2,6-difluoro-4-(3-(1-(5-propylpyrimidin-2-yl)piperidin-4-yl)propoxy)phenyl)-1-(4-((2S,3R,4R,5R)-2,3,4,5,6-pentahydroxyhexyl)piperazin-1-yl)ethan-1-one] | 100 to 130 | ≥ 7.00

Further lines, results first:

Emax [%] | pEC50 | Compound
100 to 130 | ≥ 7.00 | O=C(CCCCS(=O)(=O)O)N1C[C@H]2CN(C(=O)Cc3ccc(OCCCC4CCN(c5ncc(Cl)cn5)CC4)cc3F)[C@H]2C1 [Example 8, 5-((1S,5R)-6-(2-(4-(3-(1-(5-chloropyrimidin-2-yl)piperidin-4-yl)propoxy)-2-fluorophenyl)acetyl)-3,6-diazabicyclo[3.2.0]heptan-3-yl)-5-oxopentane-1-sulfonic acid]
100 to 130 | ≥ 7.00 | COCc1cnc(N2CCC(CCCOc3cc(F)c(CC(=O)N4CCN(C[C@H](O)[C@@H](O)[C@H](O)[C@H](O)CO)CC4)c(F)c3)CC2)nc1 [Example 99, 2-(2,6-difluoro-4-(3-(1-(5-(methoxymethyl)pyrimidin-2-yl)piperidin-4-yl)propoxy)phenyl)-1-(4-((2S,3R,4R,5R)-2,3,4,5,6-pentahydroxyhexyl)piperazin-1-yl)ethan-1-one]
100 to 130 | ≥ 7.00 | O=C(Cc1ccc(OCCCC2CCN(c3ncc(Cl)cn3)CC2)cc1F)N1CC2(CN(C[C@H](O)[C@@H](O)[C@H](O)[C@H](O)CO)C2)C1 [Example 26, 2-(4-(3-(1-(5-chloropyrimidin-2-yl)piperidin-4-yl)propoxy)-2-fluorophenyl)-1-(6-((2S,3R,4R,5R)-2,3,4,5,6-pentahydroxyhexyl)-2,6-diazaspiro[3.3]heptan-2-yl)ethan-1-one]
100 to 130 | ≥ 7.00 | O=C(Cc1ccc(OCCCC2CCN(c3ncc(Cl)cn3)CC2)cc1F)N1CC2(C1)N(C[C@H](O)[C@H](O)[C@H](O)CO)CC2(F)F [Example 62, 2-(4-(3-(1-(5-chloropyrimidin-2-yl)piperidin-4-yl)propoxy)-2-fluorophenyl)-1-(3,3-difluoro-1-((2S,3S,4R)-2,3,4,5-tetrahydroxypentyl)-1,6-diazaspiro[3.3]heptan-6-yl)ethan-1-one]
100 to 130 | ≥ 7.00 | O=C(Cc1ccc(OCCCC2CCN(c3ncc(Cl)cn3)CC2)cc1F)N1CCOC2(CCN(C[C@H](O)[C@@H](O)[C@H](O)[C@H](O)CO)C2)C1 (stereo partly drawn) [Example 81, 2-(4-(3-(1-(5-chloropyrimidin-2-yl)piperidin-4-yl)propoxy)-2-fluorophenyl)-1-(2-((2S,3R,4R,5R)-2,3,4,5,6-pentahydroxyhexyl)-6-oxa-2,9-diazaspiro[4.5]decan-9-yl)ethan-1-one]
